Earlier results as cited in US20020045179A1, “Toxicity typing using mesenchymal stem cells” (priority 2000, published 2002).
Read-outs that look alike come from different tables or passages of the source.

Legend:
[1] = in vivo
[2] = in vivo; remark: listed apart in the source
[3] = for liver toxicity (in words): predetermined toxicity stated in text of Example 2
[4] = in vivo; remark: listed apart in the source
[5] = Table 1, predetermined toxicity by tissue/organ

N.N.O=C([O-])C1(C(=O)[O-])CCC1.[Pt+2] [carboplatin]
TOXICITIES GI [1]: +

N=C(N)NCCCCCCC(=O)NC(O)C(=O)NCCCCNCCCN (stereo not drawn) [deoxyspergualin]
TOXICITIES CV [2]: +

c1ccc2c(c1)cc1ccc3cccc4ccc2c1c34 [benzo(a)pyrene]
TOXICITIES CV [2]: +

CCC(=O)O[C@H]1[C@H](O[C@@H]2[C@@H](C)[C@H](O[C@H]3C[C@@](C)(OC)[C@@H](O)[C@H](C)O3)[C@@H](C)C(=O)O[C@H](CC)[C@@](C)(O)[C@H](O)[C@@H](C)C(=O)[C@H](C)C[C@@]2(C)O)O[C@H](C)C[C@@H]1N(C)C [erythromycin estolate]
liver toxicity (in words) [3]: known liver toxicity

CC(=O)Nc1ccc(O)cc1 [acetominophen]
TOXICITIES LIVER ([3]; in vivo): +

CN(CCOc1ccc(CC2SC(=O)NC2=O)cc1)c1ccccn1 (stereo not drawn) [rosiglitazone]
TOXICITIES LIVER [3, 5]: ntc

CCOC(=O)C(C)(C)Oc1ccc(Cl)cc1 [clofibrate]
TOXICITIES LIVER [3, 5]: ntc

Cc1c(C)c2c(c(C)c1O)CCC(C)(COc1ccc(CC3SC(=O)NC3=O)cc1)O2 (stereo not drawn) [troglitazone]
liver toxicity (in words) [3]: rare but severe liver toxicity

COc1nc(C(Cl)(Cl)Cl)c(Cl)c(OC)c1Cl [penclomedine]
TOXICITIES CNS [4]: +
